Key:
PKC-epsilon = molecular target: T1, PKC-epsilon (Homo sapiens, UniProt Q02156); assay: Protein Kinase C assay (fluorescence polarization), PKC-epsilon; assay type: biochemical
T1 construct: purchased Upstate Biotechnologies, Temecula, CA 14-518
T1 sequence (Q02156 1-737): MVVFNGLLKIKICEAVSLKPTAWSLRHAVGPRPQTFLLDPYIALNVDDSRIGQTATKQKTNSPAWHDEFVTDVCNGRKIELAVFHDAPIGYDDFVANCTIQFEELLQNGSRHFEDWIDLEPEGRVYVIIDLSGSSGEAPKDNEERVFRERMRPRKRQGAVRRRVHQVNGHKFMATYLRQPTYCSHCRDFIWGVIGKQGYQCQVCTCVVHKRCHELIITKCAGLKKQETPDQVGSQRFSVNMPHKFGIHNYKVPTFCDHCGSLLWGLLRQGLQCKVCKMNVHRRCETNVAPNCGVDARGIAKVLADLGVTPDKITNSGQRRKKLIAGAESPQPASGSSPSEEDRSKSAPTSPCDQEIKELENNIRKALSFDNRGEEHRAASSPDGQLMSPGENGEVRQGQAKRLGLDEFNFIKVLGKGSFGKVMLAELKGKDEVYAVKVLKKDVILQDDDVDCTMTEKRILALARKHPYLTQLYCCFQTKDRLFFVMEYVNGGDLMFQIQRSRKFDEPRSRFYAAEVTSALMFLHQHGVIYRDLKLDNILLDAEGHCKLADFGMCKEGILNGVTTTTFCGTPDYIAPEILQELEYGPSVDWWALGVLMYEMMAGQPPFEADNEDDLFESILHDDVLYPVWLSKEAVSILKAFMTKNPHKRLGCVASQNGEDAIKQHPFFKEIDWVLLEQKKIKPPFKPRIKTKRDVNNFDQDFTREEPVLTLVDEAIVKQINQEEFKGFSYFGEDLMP
Description: (§1) The inhibition of PKC activity was measured by monitoring the production of phosphorylated peptide by fluorescence polarization at different concentrations of the inhibitor. Reactions were carried out in 96-well plate format with a total volume of 20 μL containing 20 mM HEPES, pH 7.4, 5 mM MgCl2, 0.2 mM CaCl2, 1 mM DTT, 0.02% Brij-35, 0.1 mg/mL phosphatidylserine, 0.02 mg/mL dioleoyl-sn-glycerol and 5 μM each of ATP and the peptide substrate. Compounds were first diluted serially in DMSO and then transferred to a solution containing the above concentrations of HEPES, MgCl2, CaCl2, DTT, and Brij-35 to yield 5× compound solutions in 2% DMSO, which was then added to the reaction solution. Reactions were initiated by the addition of PKC at a typical concentration as described in the table below, and then allowed to incubate at room temperature for 20 minutes. At the end of this time, a combination of quench (EDTA) and detection (peptide tracer and antibody) reagents was added using the protocol of Invitrogen P2748 (Carlsbad, Calif.), a Protein Kinase C Fluorescence polarization Assay Kit. After a 30 minute period of incubation, the amount of phosphorylated peptide generated was measured by fluorescence polarization (Ex=485 nm, Em=535 nm) using a Tecan Polarian instrument (Switzerland).
Human recombinant PKC […] is obtained from Oxford Biomedical Research and is used under the assay conditions as described under Section A.1 above.
(§2) Several subject compounds were tested according to procedures in the “Characterization of Functional Properties” section. PKC kinase activity was measured using the procedure Section A.1 (Protein Kinase C assay) with the appropriate isoform. The whole cell assay was run according to the procedure in Section A.2 (IL-2 ELISA, Human primary T cell, anti-CD3+CD28+ Assays). […] Blank entries indicate that the IC50 was not determined.

PKC-alpha = molecular target: T2, PKC-alpha (Homo sapiens, UniProt P17252); assay: Protein Kinase C assay (fluorescence polarization), PKC-alpha; assay type: biochemical
T2 construct: purchased Oxford Biomedical Research
Description: as §1
Human recombinant PKC α is obtained from Oxford Biomedical Research and is used under the assay conditions as described under Section A.1 above.
as §2

Human primary T cell = assay: IL-2 ELISA, human primary T cell, anti-CD3+CD28+ whole cell assay; assay type: cell-based; conditions: IL-2 by ELISA, human primary T cells stimulated with anti-CD3+CD28
Description: 2. IL-2 ELISA, Human Primary T Cell, Anti-CD3+CD28+ Assays
Human primary T cells were prepared as follows. Whole blood was obtained from a healthy volunteer, mixed 1:1 with PBS, layered on to Ficoll Hypaque (Amersham Pharmacia Biotech, Piscataway, N.J., Catalog #17-1440-03) in 2:1 blood/PBS:ficoll ratio and centrifuged for 30 minutes at 4° C. at 1750 rpm. The cells at the serum:ficoll interface were recovered and washed twice with 5 volumes of PBS. These freshly isolated human peripheral blood mononuclear cells were cultured in Yssel's medium containing 40 U/mL IL2 in a flask pre-coated with 1 μg/mL αCD3 and 5 μg/mL αCD28 (Anti-Human CD3, BD Pharmingen Catalog #555336, Anti-Human CD28, Beckman Coulter Catalog #1M1376). The cells were stimulated for 3-4 days, then transferred to a fresh flask and maintained in RPMI (RPMI-1640 with L-Glutamine; Mediatech, Inc., Herndon Va., cat. #10-040-CM) with 10% FBS and 40 U/mL IL-2. The primary T-cells were then washed twice with PBS to remove the IL-2.
Human primary T cells (100,000 cells per well) were pre-incubated with or without test compound in Yssel's medium for 1 hr at 37° C. Cells were then stimulated by transferring them to round-bottom 96-well plates pre-coated with 1 μg/ml αCD3 and 5 μg/ml αCD28. For counter assay, cells were instead stimulated by adding 8× stock solutions of PMA and ionomycin in Yssels (for final concentrations of 0.5 ng/ml PMA and 0.1 μM ionomycin, both from Calbiochem). Cells were incubated at 37° C. for 24 hours before 100 μL supernatants were harvested for quantification of IL-2 by ELISA using Human IL-2 Duoset ELISA Kit from R and D Systems, Cat. # DY202E.
as §2

PKC-beta = molecular target: T3, PKC-beta (Homo sapiens, UniProt P05771); assay: Protein Kinase C assay (fluorescence polarization), PKC-beta; assay type: biochemical
T3 construct: purchased Oxford Biomedical Research
T3 sequence (P05771 whole entry): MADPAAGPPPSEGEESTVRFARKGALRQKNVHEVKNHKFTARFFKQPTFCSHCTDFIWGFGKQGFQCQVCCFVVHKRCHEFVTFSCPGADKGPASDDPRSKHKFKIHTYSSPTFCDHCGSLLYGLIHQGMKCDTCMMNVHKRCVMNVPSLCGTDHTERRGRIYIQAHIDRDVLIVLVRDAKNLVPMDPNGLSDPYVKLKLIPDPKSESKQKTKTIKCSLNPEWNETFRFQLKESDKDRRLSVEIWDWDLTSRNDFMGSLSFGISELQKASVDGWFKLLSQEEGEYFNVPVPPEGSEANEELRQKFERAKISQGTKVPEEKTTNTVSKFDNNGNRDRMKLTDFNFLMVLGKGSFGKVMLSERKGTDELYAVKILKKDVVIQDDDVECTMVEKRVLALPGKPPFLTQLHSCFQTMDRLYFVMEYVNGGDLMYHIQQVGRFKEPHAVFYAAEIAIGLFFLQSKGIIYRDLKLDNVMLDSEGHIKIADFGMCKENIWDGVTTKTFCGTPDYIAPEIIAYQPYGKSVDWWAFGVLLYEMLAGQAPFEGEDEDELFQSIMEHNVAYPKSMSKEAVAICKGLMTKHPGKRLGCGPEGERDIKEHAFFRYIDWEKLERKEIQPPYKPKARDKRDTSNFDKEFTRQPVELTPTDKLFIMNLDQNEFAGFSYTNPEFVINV
Description: as §1
Human recombinant PKC β1 is obtained from Oxford Biomedical Research and is used under the assay conditions as described under Section A.1 above.
as §2

PKC-delta = molecular target: T4, PKC-delta (Homo sapiens, UniProt Q05655); assay: Protein Kinase C assay (fluorescence polarization), PKC-delta; assay type: biochemical
T4 construct: purchased Oxford Biomedical Research
T4 sequence (Q05655 whole entry): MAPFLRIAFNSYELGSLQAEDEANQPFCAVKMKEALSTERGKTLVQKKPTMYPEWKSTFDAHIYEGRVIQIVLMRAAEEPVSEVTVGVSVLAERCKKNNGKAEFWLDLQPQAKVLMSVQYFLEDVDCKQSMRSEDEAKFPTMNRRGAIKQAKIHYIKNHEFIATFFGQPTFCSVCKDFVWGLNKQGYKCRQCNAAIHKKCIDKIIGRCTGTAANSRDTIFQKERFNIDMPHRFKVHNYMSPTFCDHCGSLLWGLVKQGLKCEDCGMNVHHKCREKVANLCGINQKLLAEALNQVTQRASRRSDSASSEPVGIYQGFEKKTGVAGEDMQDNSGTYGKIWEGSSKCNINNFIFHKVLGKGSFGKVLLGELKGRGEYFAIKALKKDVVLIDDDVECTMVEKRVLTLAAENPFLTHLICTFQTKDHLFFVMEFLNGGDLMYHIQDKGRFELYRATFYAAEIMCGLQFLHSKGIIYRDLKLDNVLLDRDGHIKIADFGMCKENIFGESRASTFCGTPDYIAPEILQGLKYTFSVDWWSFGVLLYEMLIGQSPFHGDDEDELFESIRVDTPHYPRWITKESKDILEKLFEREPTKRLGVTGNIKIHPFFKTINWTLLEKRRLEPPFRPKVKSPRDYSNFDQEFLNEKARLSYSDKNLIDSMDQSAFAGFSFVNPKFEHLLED
Description: as §1
Human recombinant PKC δ is obtained from Oxford Biomedical Research and is used under the assay conditions as described under Section A.1 above.
as §2

PKC-theta = molecular target: T5, PKC-theta (Homo sapiens, UniProt Q04759); assay: Protein Kinase C assay (fluorescence polarization), PKC-theta; assay type: biochemical
T5 construct: purchased Upstate Biotechnologies, Temecula, CA 14-444
T5 sequence (Q04759 whole entry): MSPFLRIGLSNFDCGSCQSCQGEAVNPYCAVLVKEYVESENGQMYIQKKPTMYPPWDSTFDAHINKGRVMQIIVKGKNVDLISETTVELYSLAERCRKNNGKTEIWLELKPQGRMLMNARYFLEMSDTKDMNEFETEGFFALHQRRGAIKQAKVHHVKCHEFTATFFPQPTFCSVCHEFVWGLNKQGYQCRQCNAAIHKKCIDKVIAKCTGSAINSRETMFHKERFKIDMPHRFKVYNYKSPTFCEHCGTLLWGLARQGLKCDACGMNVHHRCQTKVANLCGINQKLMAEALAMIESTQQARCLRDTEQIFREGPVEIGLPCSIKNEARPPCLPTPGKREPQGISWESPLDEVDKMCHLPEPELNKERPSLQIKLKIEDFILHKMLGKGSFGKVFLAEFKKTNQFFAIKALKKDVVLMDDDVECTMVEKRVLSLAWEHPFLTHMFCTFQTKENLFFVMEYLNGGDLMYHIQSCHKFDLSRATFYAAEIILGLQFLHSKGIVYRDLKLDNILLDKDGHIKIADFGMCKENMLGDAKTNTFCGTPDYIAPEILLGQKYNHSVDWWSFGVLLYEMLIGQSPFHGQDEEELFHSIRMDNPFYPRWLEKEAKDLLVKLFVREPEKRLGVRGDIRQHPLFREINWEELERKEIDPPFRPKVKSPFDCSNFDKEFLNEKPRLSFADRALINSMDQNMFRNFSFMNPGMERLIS
Description: as §1
Human recombinant PKC θ is used under the assay conditions as described above.
as §2

CC1C[C@H](CNc2nc(Nc3ccc4c(c3)-n3nnnc3C(C)(C)O4)ncc2F)C(C)(C)N1 (stereo partly drawn) [Compound 2-8, N2-(4,4-dimethyl-4H-benzo[b]tetrazolo[1,5-d][1,4]oxazin-8-yl)-5-fluoro-N4-(((3R)-2,2,5-trimethylpyrrolidin-3-yl)methyl)pyrimidine-2,4-diamine]
IC50 (PKC-epsilon): < 250 nM | IC50 (PKC-alpha): < 250 nM | IC50 (Human primary T cell): 250 to 500 nM | IC50 (PKC-beta): 250 to 500 nM | IC50 (PKC-delta): < 250 nM | IC50 (PKC-theta): < 250 nM

Source: patent publication US9453028B2, “Protein kinase C inhibitors and uses thereof” (Rigel Pharmaceuticals, Inc., priority 2009, dated 2016)
